Source: patent publication US20180263943A1, “COMPOUND FOR TREATMENT OF MYOTONIC DYSTROPHY TYPE 1” (UNIVERSITAT DE VALÈNCIA, ESTUDI GENERAL, priority 2014, published 2018)
“Also recorded” adds a separate entry of the source.

How the values were obtained:
[1] = tested on: DM1 model flies (Mhc-Gal4 UASi(CTG)480>yw); experiment: Drosophila lifespan analyses with oral drug administration; assay type: in vivo; settings: for median survival compared to untreated flies / survival / mean life expectancy of myotonic dystrophy type 1 model flies (summary): oral administration; for survival / mean life expectancy of myotonic dystrophy type 1 model flies (summary): tested at 10 and 100 μM; for increase in mean life compared to that for untreated flies: oral, 29° C.
Description: Between 50-80 newly emerged flies were collected in freshly prepared tubes containing standard nutritive medium containing apoptosis or autophagic inhibitor drugs or solvent only (water or DMSO). Males and females were kept in different tubes at 29° C. Every day, the number of dead flies was scored. Flies were transferred to new tubes twice a week. NAC, chloroquine and NSCl (Sigma-Aldrich) were tested at 10 and 100 μM and dissolved in water or DMSO following the manufacturer's indications. Survival curves were obtained using the Kaplan-Meier method. Statistical curve comparisons were carried out according to the Gehan-Breslow-Wilcoxon test (α=0.05).
The effect of a chemical inhibition of apoptosis or autophagy in model flies (Mhc-Gal4 UASi(CTG)480>yw) was studied. Consequently, two different drugs previously described as autophagic inhibitors were tested. N-acetyl cysteine (NAC) blocks reactive oxygen species (ROS) and protects cells by inhibiting autophagy through activation of the PI3K/Akt/mTOR pathway (20), and chloroquine triggers autophagy inhibition raising lysosomal pH and, consequently, the fusion of autophagosome with lysosome, thus preventing lysosomal protein degradation [reviewed in (21)]. Both drugs were assayed at two different concentrations, 10 and 100 μM (FIGS. 5 A, B).
Additionally, the effects of apoptosis inhibition were assayed. NSCl, a caspase 3 inhibitor, was orally administered.

DM1 fibroblasts = experiment: LysoTracker staining of autolysosomes in DM1 fibroblasts; assay type: cell-based, human; settings: 0.01, 1, 10 and 100 μM, 48 h
Description: A cell model of DM1 (provided by D. Furling's laboratory, Institute of Myologie, Paris) consisted of normal and DM1 (1300 CTG repeats) immortalized (hTERT) skin fibroblasts expressing conditional MyoD. Fibroblast cells were grown in Dulbecco's Modified Eagle Medium (DMEM) with 4.5 g/L of glucose, 1% of penicillin and streptomycin (P/S) and 10% foetal bovine serum (FBS) (Sigma). For compound testing, fibroblasts were aliquoted in 24-well plate at 3.5×10^4 cells per well. Each well contained a cover slip.
To this end, a cell model of DM1 was cultured as described above and NAC (Sigma-Aldrich) was added to afford final concentrations of 0.01, 1, 10 and 100 μM before incubating the cultures for 48 hours. To transdifferentiate fibroblasts into myoblasts by inducing expression of MyoD, cells were plated in muscle differentiation medium (MDM) containing DMEM 4.5 g/L glucose with 1% P/S, 2% horse serum, 1% apo-transferrin (10 mg/mL), 0.1% insulin (10 mg/mL) and 0.02% doxycyclin (10 mg/mL). After treatment with NAC, each well was washed twice with PBS and incubated with 100 nM LysoTracker RED-DND99 and 5 μg/mL Hoechst 33258 (Invitrogen and Sigma-Aldrich, respectively) at 37° C. for 30 min and mounted using fluorescence mounting medium (Dako, Glostrup, Denmark). Images from cell culture were obtained using a fluorescence microscope Leica DM4000 B LED at 400× magnification (FIG. 6).

[2] = tested on: Myosin heavy chain (Mhc)-Gal4 UAS-i(CTG)480 flies; experiment: Flight assay (landing height); assay type: in vivo, Drosophila; settings: five days
Description: Flight assays were performed five days after according to (Babcock et al. 2014 PMID: 24561810) using 100 male flies per group. Landing distance was compared between groups taking the compound and controls using t-student test (FIG. 8). The significance threshold was set to p<0.05.

MBNL1 = MBNL1 nuclear protein levels in DM1 myoblasts (immunofluorescence); assay type: cell-based, human; settings: 0.1, 1, 10 and 100 μM, 24 h
Description: In order to determine whether NAC modifies MBNL1 protein levels and/or the number of ribonuclear foci, DM1 fibroblasts were transdifferentiated to myoblasts by induction of MyoD expression for 24 h. To this end, fibroblasts were aliquoted in 96-well plate (8×10^3 cells per well) and transdifferentiated to myoblast in DMD media over 24 hours before the addition of NAC was added at concentrations of 0.1, 1, 10 and 100 μM using DMSO and water as vehicle and remained in the media with the compound another 24 hours. Subsequently cells were fixed in 4% paraformaldehyde (PFA) for 10 min at room temperature followed by several washes in PBS 1×. Cells were then permeabilized with 0.3% Triton in PBS (PBT), blocked (PBT 1% donkey serum and 0.5% BSA) for 30 min at room temperature, and incubated with primary antibody (mouse anti-MBNL1 1:200; Sigma) at 4° C. overnight in order to detect MBNL1 with a monoclonal antibody. After several washes with PBT, cells were incubated for 45 min with biotin-conjugated secondary antibody (Sigma) at a 1:200 dilution. Cells were then incubated with ABC solution (ABC kit, VECTASTAIN) for 30 min at room temperature, followed by PBT washes and incubation with streptavidin-FITC (1:200) for 45 min. […] Images were taken using IN Cell Analyzer 2200 Imaging System and MBNL intensity in nuclei was counted using software designed for this system.

ribonuclear foci = experiment: Ribonuclear foci detection in DM1 cells (in situ hybridization); assay type: cell-based, human; settings: 0.1, 1, 10 and 100 μM, 24 h
Description: In addition, for ribonuclear foci detection, fibroblasts were aliquoted in 96-well plate (1.0×10^4 cells per well). Compound was added 24 hours after plating the cells. After 24 hours incubation with NAC at concentrations of 0.1, 1, 10 and 100 μM using DMSO and water as vehicle, cells were fixed in 4% paraformaldehyde (PFA) for 10 min at room temperature followed by several washes in PBS 1×. Fixed cells were incubated in pre-hybridization buffer (SSC 2×, 30% deionized formamide) for 30 min at room temperature, hybridized with Cy3-(CAG)7-Cy3 labelled probe diluted 1:500 in hybridization buffer (40% formamide, 2×SSC, 0.2% BSA, 10% dextran sulfate, 2 mM vanadyl complex, 10% tRNA (10 mg/mL), 10% herring sperm) for 2 hours at 37° C., washed twice in SSC2× buffer for 15 min at 45° C., washed in PBS 1× for 15 min at room temperature, incubated with Hoechst 33342 (5 mg/mL) diluted 1:2000 in PBS 1× for 20 min at room temperature and mounted with 20% MOWIOL. Images were taken using IN Cell Analyzer 2200 Imaging System and foci number was counted using software designed for this system.

[3] = tested on: DM1 model flies [Mhc-Gal4 UAS-i(CTG)480>yw]; experiment: Histological analysis of indirect flight muscle area in DM1 model flies; assay type: in vivo, Drosophila; settings: oral administration
Description: Analysis of the indirect flight muscle area in Drosophila thoraces was performed as previously described (13). Briefly, six Drosophila thoraces of three-day-old females were embedded in Epon following standard procedures. After the drying of the resin, semi-thin sections of 1.5 μm were obtained using Ultracut E ultramicrotome system (Reichert & Jung and Leica). Images were taken at 100× magnification with a Leica DM2500 microscope. To quantify muscle area, five images per fly containing IFMs (indirect flight muscles) were converted into binary images. Considering the complete image as 100% of the area, the percentage occupied by pixels corresponding to IFMs was calculated using NIH ImageJ software. P-values were obtained using a two-tailed, non-paired t-test (α=0.05), applying Welch's correction when necessary.
For that purpose, DM1 model flies were fed with food containing 10 and 100 μM NAC for 7 days.
Histological analysis of muscles was performed in adult model flies [Mhc-Gal4 UAS-i(CTG)480>yw] and control flies (Mhc-Gal4>yw) which were fed for 7 days at 25° C. with standard media containing 10 and 100 μM NAC. After that period, six female thoraces were subjected to non-fluorescent histological analysis, as described above (FIG. 7).

SMILES	improvement of mean life ([1]; 10 μM (lower concentration), orally administered)	median survival compared to untreated flies ([1]; 10 μM)	median survival compared to untreated flies ([1]; 100 μM)	survival / mean life expectancy of myotonic dystrophy type 1 model flies (summary) [1]	autolysosomes (LysoTracker staining) compared to untreated DM1 fibroblasts (DM1 fibroblasts)	landing height ([2]; 10 μM in food)	landing height ([2]; 100 μM in food)	MBNL1 intensity in the nucleus / MBNL1 protein levels (MBNL1)	number of ribonuclear foci (ribonuclear foci)	increase in mean life compared to that for untreated flies ([1]; 10 μM in food)	increase in mean life compared to that for untreated flies ([1]; 100 μM in food)	muscle area of IFM versus water control ([3]; 10 μM)	muscle area of IFM versus water control ([3]; 100 μM)
COc1ccc(CN2C(=O)C(=O)c3cc(S(=O)(=O)N4CCC[C@H]4COc4cccnc4)ccc32)cc1 [NSCl, 1-(4-methoxybenzyl)-5-({(2S)-2-[(3-pyridinyloxy)methyl]-1-pyrrolidinyl}sulfonyl)-1H-indole-2,3-dione]	4 days	improvement in median survival	No effect	improved	–	–	–	–	–	–	–	–	–
CC(=O)N[C@@H](CS)C(=O)O [NAC, N-acetyl cysteine]	–	increased median survival	increased median survival	more than doubled	dramatic decrease of autolysosomes; also recorded: dramatically reduce autolysosomes	significantly higher landing height	significantly higher landing height	remains unchanged	does not modify; also recorded: neither modifies	at least twice	at least twice	increase in muscle area	increase in muscle area
CCN(CC)CCCC(C)Nc1ccnc2cc(Cl)ccc12 (stereo not shown) [chloroquine]	–	increased median survival	increased median survival	more than doubled	–	–	–	–	–	at least twice	at least twice	increase in muscle area	–
